Results on eleven molecules are retold here after paper PMC9015526, “Mass Spectrometric Assays Reveal Discrepancies in Inhibition Profiles for the SARS‐CoV‐2 Papain‐Like Protease” (Chemmedchem, 2022).

Several values for one entry are separate records, joined by “and”; a condition that tells them apart may be missing. Identical values can stand only once. Like-named read-outs stand apart in the source and are kept apart here.

In test [1] the target is T1, SARS‐CoV‐2 PL^pro (Severe acute respiratory syndrome coronavirus 2, UniProt P0DTD1). Nature of the test: biochemical.
Test [2] deals with T1, SARS‐CoV‐2 PL^pro. The conditions noted are these: read-out: Reported IC50, cited from earlier work.
The target of test [3] is T1, SARS‐CoV‐2 PL^pro. The conditions noted are these: Fluorescence, cited from earlier work.
The mark [4] stands for this setting: 0.2 μM PL^pro, 2.0 μM nsp2/3 peptide 2, 50 mM Tris pH 8.0, n=2, mean±SD, read-out: SPE‐MS IC50.

In the case of `CC(=O)OC[C@H]1O[C@@H]([S-])[C@H](OC(C)=O)[C@@H](OC(C)=O)[C@@H]1OC(C)=O.CCP(CC)CC.[Au+]` [auranofin], the “PL^pro inhibition in SPE‐MS assay (in words)” value (“PL^pro inhibition” for short) at SARS‐CoV‐2 PL^pro [1] is on record as “potently inhibit”.
On to `COc1cc2ncnc(Nc3ccc(F)c(Cl)c3)c2cc1NC(=O)/C=C/CN1CCCCC1` [dacomitinib], for which the “PL^pro inhibition” value at SARS‐CoV‐2 PL^pro [1] is “inactive”. In addition, the IC50 was over 50 µM at SARS‐CoV‐2 PL^pro [1] (setting [4]) and 3 to 5 µM on SARS‐CoV‐2 PL^pro [2] (FRET‐based assays, ref 8b).
Consider `CC(C)(F)C[C@H](N[C@@H](c1ccc(-c2ccc(S(C)(=O)=O)cc2)cc1)C(F)(F)F)C(=O)NC1(C#N)CC1` [MK‐0822, odanacatib], for which the “PL^pro inhibition” value at SARS‐CoV‐2 PL^pro [1] is “does not inhibit”. In addition, the concentration for half-maximal inhibition (IC50) at SARS‐CoV‐2 PL^pro [1] (setting [4]) is over 50 µM.
As for `COCCn1c2c([n+](Cc3cnccn3)c1C)C(=O)c1ccccc1C2=O` [YM‐155, sepantronium bromide], the IC50 against SARS‐CoV‐2 PL^pro [1] (SPE‐MS IC50) is over 50 µM.
Turning to `CCOC(=O)C[C@H](NC(=O)[C@H](C)NC(=O)[C@@H](NC(=O)OCc1ccccc1)C(C)C)C(=O)COC(=O)c1c(Cl)cccc1Cl` [SDZ‐224015], the “PL^pro inhibition” value on SARS‐CoV‐2 PL^pro [1] was “does not inhibit”. Moreover, the IC50 at SARS‐CoV‐2 PL^pro [1] (setting [4]) was over 50 µM.
On to Cbz‐RLRGG‐Amc, for which the Km was 6.9 ± 1.4 µM on SARS‐CoV‐2 PL^pro [3] (ref 14) and 70.9 ± 10.2 µM at SARS‐CoV‐2 PL^pro [3] (ref 18).
In the case of `C[C@H]1COC2=C1C(=O)C(=O)c1c2ccc2c1CCCC2(C)C` [cryptotanshinone], on SARS‐CoV‐2 PL^pro [1], the “PL^pro inhibition” value is reported as “did not, at least efficiently, inhibit”.
Consider `Cc1ccc(-n2sc3ccccc3c2=O)cc1` [PBIT, 2‐(para‐tolyl)benzo[d]isothiazol‐3(2H)‐one], for which the IC50 against SARS‐CoV‐2 PL^pro [1] (SPE‐MS IC50) is ~0.3 µM and 0.3 µM.
The same measure, in the same setting: in the case of `CC(=O)Nc1ccc(C)c(C(=O)N[C@H](C)c2cccc3ccccc23)c1` [PL^pro inhibitor 6] it was ~12.5 µM and 12.5 µM.
For `CN(C)C/C=C/C(=O)Nc1cc2c(Nc3ccc(F)c(Cl)c3)ncnc2cc1O[C@H]1CCOC1` [afatinib], the “PL^pro inhibition” value on SARS‐CoV‐2 PL^pro [1] is “inactive”. The 50% inhibitory concentration (IC50) against SARS‐CoV‐2 PL^pro [1] (SPE‐MS IC50) is over 50 µM; on SARS‐CoV‐2 PL^pro [2], 11 to 16 µM.
For the molecule `Cc1cc(O)c2c(=O)c3c(O)cc(O)c4c5c(O)cc(O)c6c(=O)c7c(O)cc(C)c8c1c2c(c34)c(c78)c65` [Hypericin], at SARS‐CoV‐2 PL^pro [1], the “PL^pro inhibition” value was “did not inhibit”. This molecule also returned an IC50 against SARS‐CoV‐2 PL^pro [1] (SPE‐MS IC50) of over 50 µM.

The IC50 is the concentration at which inhibition is half-maximal. The term Km denotes the concentration of substrate that gives half-maximal velocity.
